{
  "source": "patent US11547735B2",
  "about": "“Composition for ameliorating psoriasis symptoms containing extract of Thalictrum squarrosum steph” (KOREA INSTITUTE OF SCIENCE AND TECHNOLOGY, priority 2020, dated 2023)",
  "key": {"[1]": {"test_system": "psoriasis caused by imiquimod", "test": "Epithelial thickness of back skin by H&E staining in imiquimod psoriasis model", "type": "in vivo, Balb/c mice", "conditions": "after treatment for a week, compared to the IMQ group", "source_text": "(§1) 6-week-old male Balb/c mice (Kangwon Life Science, Korea) were purchased and acclimated for a week, and psoriasis was induced using 5% imiquimod (Donga ST, Korea). FIG. 1 is a schematic experimental scheme of an animal model. Anti-psoriatic efficacy was investigated using a total of 20 animal models including 5 animals per experimental group.\n(§2) In order to determine the effect of the extract of Thalictrum squarrosum steph on psoriasis caused by imiquimod, the experimental animals of Section 2-1 were used. The following four experimental groups were constructed and five animals were randomly assigned to each group:\n(§3) The experiment was conducted by inducing psoriasis with IMQ cream and then performing daily application in the amount shown in FIG. 2 to the experimental group and the DEX group. FIG. 3 is an image showing the treatment group for 7 days compared to the psoriasis-induced model as the animal experimental model.\nAfter treatment for a week, the back skin tissue was removed from each animal, and then a paraffin block was prepared. The paraffin block was cut to 5 μm to prepare a slide sample, and then the change in the thickness of the skin tissue was measured through H&E staining."}, "[2]": {"test_system": "filaggrin, loricrin, keratin 1 and keratin 14", "test": "Biomarkers for epithelial tissue damage in back skin by immunofluorescence", "type": "in vivo, Balb/c mice", "conditions": "after treatment for a week, versus IMQ group", "source_text": "as §1, §2, §3\nAfter treatment for a week, back skin tissue was removed from each animal and a paraffin block was then prepared. A paraffin block was cut to 5 μm to prepare a slide sample, and then the change in biomarkers for epithelial tissue damage due to psoriasis was measured through immunofluorescence."}},
  "data": [
    {"smiles": "C[C@@H]1C[C@H]2[C@@H]3CCC4=CC(=O)C=C[C@]4(C)[C@@]3(F)[C@@H](O)C[C@]2(C)[C@@]1(O)C(=O)CO", "note": "[DEX, dexamethasone]", "values": [
      {"measurement": "thickness of the epithelial layer", "setting": "[1]", "value": "decreased thickness"},
      {"measurement": "expression level of filaggrin", "setting": "[2]", "value": "increased"},
      {"measurement": "expression level of keratin 1", "setting": "[2]", "value": "increased"},
      {"measurement": "expression level of keratin 14", "setting": "[2]", "value": "increased"},
      {"measurement": "expression level of loricrin", "setting": "[2]", "value": "increased"}
    ]}
  ]
}
